Among the data in PMC12368479, “Inhibition of the Clathrin Terminal Domain—Amphiphysin Protein–Protein Interaction. Probing the Pitstop 2 Aromatic Moiety” (Chemmedchem, 2025) are IC50 values, retold here.

Like-named read-outs stand apart in the source and are kept apart here.

Assay [1] concerns the target T1, full length human Dynamin I (Homo sapiens, UniProt Q05193).
T1 construct: full length human Dynamin I expressed in Sf21 insect cells; made in house; host or cells: Sf21 insect cells
T1 sequence (Q05193 1-864): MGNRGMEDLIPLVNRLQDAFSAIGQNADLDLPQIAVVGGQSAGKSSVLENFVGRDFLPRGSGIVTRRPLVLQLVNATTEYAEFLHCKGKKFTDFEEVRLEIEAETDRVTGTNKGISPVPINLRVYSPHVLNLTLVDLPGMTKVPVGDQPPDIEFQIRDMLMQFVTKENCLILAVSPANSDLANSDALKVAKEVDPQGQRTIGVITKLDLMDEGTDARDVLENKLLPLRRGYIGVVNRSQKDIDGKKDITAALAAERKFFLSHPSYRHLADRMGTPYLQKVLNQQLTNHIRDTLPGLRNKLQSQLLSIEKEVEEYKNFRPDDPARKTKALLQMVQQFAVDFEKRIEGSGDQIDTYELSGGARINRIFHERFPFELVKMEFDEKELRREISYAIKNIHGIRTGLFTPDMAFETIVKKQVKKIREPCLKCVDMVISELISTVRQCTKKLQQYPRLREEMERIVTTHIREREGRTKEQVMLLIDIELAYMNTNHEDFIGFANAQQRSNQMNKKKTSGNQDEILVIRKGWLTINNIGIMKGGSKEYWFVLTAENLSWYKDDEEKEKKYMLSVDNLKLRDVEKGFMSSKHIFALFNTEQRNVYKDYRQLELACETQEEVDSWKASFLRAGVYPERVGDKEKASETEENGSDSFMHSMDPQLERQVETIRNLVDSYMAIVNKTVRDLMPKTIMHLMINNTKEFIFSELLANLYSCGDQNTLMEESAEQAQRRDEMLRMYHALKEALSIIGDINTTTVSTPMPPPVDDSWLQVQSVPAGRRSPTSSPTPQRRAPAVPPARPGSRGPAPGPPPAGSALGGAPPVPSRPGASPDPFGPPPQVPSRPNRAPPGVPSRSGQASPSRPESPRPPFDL
Nature of the assay: Dynamin GTPase activity, Malachite Green phosphate detection assay. In kind it is biochemical. Here is the method: Dynamin GTPase activity was determined in vitro using the Malachite Green phosphate detection absorbance‐based assay within a 96‐well plate format as described previously. The enzyme source was full length human Dynamin I expressed in Sf21 insect cells and affinity‐purified on GST‐Amph2‐SH3 (rat Amphiphysin 2 (494–588)).^[ [56] ^]

The target in assay [2] is T2, clathrin heavy chain NTD (amino acids 1–364) – amphiphysin 1 B/C domain protein–protein interaction (NTD‐PPI) (Homo sapiens, UniProt Q00610).
T2 construct: GST‐tagged clathrin heavy chain NTD (amino acids 1–364); made in house
T2 sequence (Q00610 1-364): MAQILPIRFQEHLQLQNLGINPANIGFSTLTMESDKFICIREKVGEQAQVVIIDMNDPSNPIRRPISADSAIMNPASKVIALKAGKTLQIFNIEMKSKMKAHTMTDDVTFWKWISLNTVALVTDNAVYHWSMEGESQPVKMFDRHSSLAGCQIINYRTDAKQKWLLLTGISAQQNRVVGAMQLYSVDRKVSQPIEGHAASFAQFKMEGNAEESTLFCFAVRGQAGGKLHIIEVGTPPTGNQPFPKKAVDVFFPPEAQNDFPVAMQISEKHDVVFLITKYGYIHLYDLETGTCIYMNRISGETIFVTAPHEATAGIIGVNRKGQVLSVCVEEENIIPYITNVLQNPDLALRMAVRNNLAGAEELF
The assay is described as follows: ELISA-based clathrin inhibitor binding assay (NTD-PPI). The settings on record: Table 3, library 3; ELISA, average of duplicate measurements (n = 2); read-out: NTD‐PPI IC50. As to the method: The clathrin inhibitor assay was based inhibition of protein–protein interaction (PPI) between clathrin and amphiphysin as described in our previous report.^[ [45], [54] ^] Bacterially expressed recombinant purified His6‐tagged amphiphysin 1 B/C domain (which comprises both the clathrin and the AP‐2 binding sites, amino acids 250‐578^[ [55] ^]) in screening buffer (20 mM HEPES, pH 7.4, 50 mM NaCl, 1 mM DTT, 1 mM PMSF) was added to a 384 well ELISA plate (Corning Maxisorp 3700) and bound to the plastic for 1 h at room temperature. […] Following extensive washes (with 20 mM HEPES, pH 7.4, 50 mM NaCl, 0.05% Tween 20), chemical compounds diluted in DMSO (10 μL) were added and incubated together with bacterially expressed recombinant GST‐tagged clathrin heavy chain NTD (amino acids 1–364) for 1 h at room temperature in screening buffer. After 3 washes, horseradish peroxidase‐coupled anti‐GST antibodies were added in screening buffer and the plate incubated for 40 min at room temperature. Following additional washes, 50 μL TMB (3,3′,5,5′‐tetramethylbenzidine) (Pierce Biotechnology) chromogenic substrate of horseradish peroxidase was added, and the plate was incubated for 10 min before the reaction was terminated by adding 50 μL 1N sulfuric acid to produce a yellow colour. The amount of bound protein was determined by spectrophotometric measurement in a plate reader. Relative binding was calculated as a percentage of DMSO control.

The mark [3] stands for this setting: Table 1, library 1, n = 1 unless noted (19: n = 2), '–' = not active at 150 μM, read-out: Dyn 1 IC50.
The mark [4] stands for this setting: values quoted in running text (section 2.2), read-out: Dynamin IC50.
Setting [5] is: Table 2, library 2, n = 3, triplicate, '–' = not active at 100 μM, read-out: Dyn 1 IC50.

Consider `N#Cc1ccc(/C=C2\SC(NS(=O)(=O)c3cccc4ccccc34)=NC2=O)cc1` [compound 11, (Z)‐N‐(5‐(4‐cyanobenzylidene)‐4‐oxo‐4,5‐dihydrothiazol‐2‐yl)naphthalene‐1‐sulfonamide], for which the IC50 in assay [1] (setting [3]) is above 150 µM.
As for `O=C1N=C(NS(=O)(=O)c2cccc3ccccc23)SC1=Cc1ccccc1-c1ccccc1` [compound 16, N‐(5‐([1,1'‐biphenyl]‐2‐ylmethylene)‐4‐oxo‐4,5‐dihydrothiazol‐2‐yl)naphthalene‐1‐sulfonamide], the IC50 in assay [1] (setting [3]) is above 150 µM.
Take `CC(C)(C)c1ccc(/C=C2\SC(NS(=O)(=O)c3cccc4ccccc34)=NC2=O)cc1` [compound 20, (Z)‐N‐(5‐(4‐(tert‐butyl)benzylidene)‐4‐oxo‐4,5‐dihydrothiazol‐2‐yl)naphthalene‐1‐sulfonamide]: the IC50 in assay [1] (setting [3]) was above 150 µM.
Consider `CCCc1ccc(/C=C2\SC(NS(=O)(=O)c3cccc4ccccc34)=NC2=O)cc1` [compound 22, (Z)‐N‐(4‐oxo‐5‐(4‐propylbenzylidene)‐4,5‐dihydrothiazol‐2‐yl)naphthalene‐1‐sulfonamide], for which the results for the IC50 in assay [1] (setting [3]) and in assay [1] (setting [4]) were around 91 µM and 91 µM, respectively.
In the same order, the values of `CCCCc1ccc(/C=C2\SC(NS(=O)(=O)c3cccc4ccccc34)=NC2=O)cc1` [compound 23, (Z)‐N‐(5‐(4‐butylbenzylidene)‐4‐oxo‐4,5‐dihydrothiazol‐2‐yl)naphthalene‐1‐sulfonamide] are around 103 µM and 103 µM.
As to `O=C1N=C(NS(=O)(=O)c2cccc3ccccc23)S/C1=C\c1ccc(O)cc1O` [compound 25, (Z)‐N‐(5‐(2,4‐dihydroxybenzylidene)‐4‐oxo‐4,5‐dihydrothiazol‐2‐yl)naphthalene‐1‐sulfonamide], the IC50 in assay [1] (setting [5]) turned out to be 61.2 ± 7.5 µM.
For `O=C1N=C(NS(=O)(=O)c2cccc3ccccc23)S/C1=C\c1cc(O)ccc1O` [compound 26, (Z)‐N‐(5‐(2,5‐dihydroxybenzylidene)‐4‐oxo‐4,5‐dihydrothiazol‐2‐yl)naphthalene‐1‐sulfonamide], the IC50 in assay [1] (setting [5]) was 70 ± 5.3 µM.
For `O=C1N=C(NS(=O)(=O)c2cccc3ccccc23)S/C1=C\c1ccc(O)c(O)c1` [compound 27, (Z)‐N‐(5‐(3,4‐dihydroxybenzylidene)‐4‐oxo‐4,5‐dihydrothiazol‐2‐yl)naphthalene‐1‐sulfonamide], the IC50 in assay [1] (setting [5]) was 50.4 ± 8.4 µM.
In the case of `O=C1N=C(NS(=O)(=O)c2cccc3ccccc23)S/C1=C\c1ccc(O)c(O)c1O` [compound 28, (Z)‐N‐(4‐oxo‐5‐(2,3,4‐trihydroxybenzylidene)‐4,5‐dihydrothiazol‐2‐yl)naphthalene‐1‐sulfonamide], the IC50 in assay [1] (setting [5]) was found to be 34.3 ± 3.4 µM.
For the compound `COc1cccc(/C=C2\SC(NS(=O)(=O)c3cccc4ccccc34)=NC2=O)c1OC` [compound 29, (Z)‐N‐(5‐(2,3‐dimethoxybenzylidene)‐4‐oxo‐4,5‐dihydrothiazol‐2‐yl)naphthalene‐1‐sulfonamide], in assay [1] (setting [5]), the IC50 was above 100 µM.
Regarding `COc1cc(/C=C2\SC(NS(=O)(=O)c3cccc4ccccc34)=NC2=O)cc(OC)c1` [compound 32, (Z)‐N‐(5‐(3,5‐dimethoxybenzylidene)‐4‐oxo‐4,5‐dihydrothiazol‐2‐yl)naphthalene‐1‐sulfonamide], the IC50 in assay [1] (setting [5]) is above 100 µM.
As for `O=C1N=C(NS(=O)(=O)c2cccc3ccccc23)S/C1=C\c1ccc(F)c(F)c1` [compound 38, (Z)‐N‐(5‐(3,4‐difluorobenzylidene)‐4‐oxo‐4,5‐dihydrothiazol‐2‐yl)naphthalene‐1‐sulfonamide], the IC50 in assay [1] (setting [5]) is above 100 µM.
`O=C1N=C(NS(=O)(=O)c2cccc3ccccc23)S/C1=C\C1CC=CCC1` (stereo not shown) [compound 39, (Z)‐N‐(5‐(cyclohex‐3‐en‐1‐ylmethylene)‐4‐oxo‐4,5‐dihydrothiazol‐2‐yl)naphthalene‐1‐sulfonamide]: the IC50 in assay [2] was 4.3 µM.
`CCCCCCC/C=C1\SC(NS(=O)(=O)c2cccc3ccccc23)=NC1=O` [compound 43, (Z)‐N‐(5‐octylidene‐4‐oxo‐4,5‐dihydrothiazol‐2‐yl)naphthalene‐1‐sulfonamide]: in assay [2], the IC50 is 5.9 µM.

As usually defined, the IC50 is the concentration at which inhibition is half-maximal.
